These are literature values, as cited in patent US6183992A, “Method for mass production of antimicrobial peptide” (Samyang Genex Corporation, priority 1997, dated 2001).

Ends that are not written are not given here.

The conditions of this series: Table 1, excerpted from Peptide Science, Vol 37, 105-122 (1995).

On to Cercropin A [Ceropin A], for which the pI is 10.89.

Bombinin: the pI is on record as 10.34.

As for HNP-I [HNP1], the pI is 8.28.

Turning to Apidaecin I, the pI was 12.21.

On to `CC[C@H](C)[C@H](N)C(=O)N[C@@H](CC(C)C)C(=O)N1CCC[C@H]1C(=O)N[C@@H](Cc1c[nH]c2ccccc12)C(=O)N[C@@H](CCCCN)C(=O)N[C@@H](Cc1c[nH]c2ccccc12)C(=O)N1CCC[C@H]1C(=O)N[C@@H](Cc1c[nH]c2ccccc12)C(=O)N[C@@H](Cc1c[nH]c2ccccc12)C(=O)N1CCC[C@H]1C(=O)N[C@@H](Cc1c[nH]c2ccccc12)C(=O)N[C@@H](CCCNC(=N)N)C(=O)N[C@@H](CCCNC(=N)N)C(N)=O` [Indolicidin], for which the pI is reported as 12.51.

Take GKPRPYSPRPTSHPRPIRV [Drosocin]: the pI is 12.22.

For the compound `CC[C@H](C)[C@H](NC(=O)CN)C(=O)NCC(=O)N[C@@H](C)C(=O)N[C@H](C(=O)N[C@@H](CC(C)C)C(=O)N[C@@H](CCCCN)C(=O)N[C@H](C(=O)N[C@@H](CC(C)C)C(=O)N[C@H](C(=O)N[C@H](C(=O)NCC(=O)N[C@@H](CC(C)C)C(=O)N1CCC[C@H]1C(=O)N[C@@H](C)C(=O)N[C@@H](CC(C)C)C(=O)N[C@H](C(=O)N[C@@H](CO)C(=O)N[C@@H](Cc1c[nH]c2ccccc12)C(=O)N[C@H](C(=O)N[C@@H](CCCCN)C(=O)N[C@@H](CCCNC(=N)N)C(=O)N[C@@H](CCCCN)C(=O)N[C@@H](CCCNC(=N)N)C(=O)N[C@@H](CCC(N)=O)C(=O)N[C@@H](CCC(N)=O)C(N)=O)[C@@H](C)CC)[C@@H](C)CC)[C@@H](C)O)[C@@H](C)O)C(C)C)C(C)C` [Melittin], the pI was 12.53.

Consider Magainin (MSI-344), for which the pI was 11.41.

Regarding Tachyplesin I, the pI was 10.01.
